Test results as given in ChEMBL document CHEMBL1142605, “Stemoninines from the roots of Stemona tuberosa” (2006).

Assays:
Cavia porcellus [1] = test: Antitussive activity in Dunkin-Hartley guinea pig assessed as inhibition of citric acid-induced cough at 100 mg/kg, ip administered 30 mins before citric acid challenge; assay type: functional; settings: route intraperitoneal
Cavia porcellus [2] = test: Antitussive activity in ip dosed Dunkin-Hartley guinea pig assessed as inhibition of citric acid-induced cough administered 30 mins before citric acid challenge; assay type: functional

Compound	inhibition in vivo at 100 mg/kg (Cavia porcellus [1]) [%]	Activity (Cavia porcellus [2])	ED50 (Cavia porcellus [2]) [µmol/kg]
CC[C@H]1[C@@H]2c3ccc([C@@H]4C[C@H](C)C(=O)O4)n3CCC[C@H]2O[C@]12C=C(C)C(=O)O2 [BISDEHYDROSTEMONININE]	90	Dose-dependent effect	188
CC[C@@H]1[C@H]2CCCCN3[C@H]2[C@@H](C[C@H]3[C@@H]2C[C@H](C)C(=O)O2)[C@H]2[C@@H]1OC(=O)[C@H]2C [NEOTUBEROSTEMONINE]			66
